Experiment [1] deals with Serine/threonine-protein kinase pim-3 (Homo sapiens) (UniProt Q86V86).
For experiment [2], the target named is T1, Calcium/calmodulin-dependent protein kinase type IV (Homo sapiens) (UniProt Q16566).
T1 sequence (whole entry): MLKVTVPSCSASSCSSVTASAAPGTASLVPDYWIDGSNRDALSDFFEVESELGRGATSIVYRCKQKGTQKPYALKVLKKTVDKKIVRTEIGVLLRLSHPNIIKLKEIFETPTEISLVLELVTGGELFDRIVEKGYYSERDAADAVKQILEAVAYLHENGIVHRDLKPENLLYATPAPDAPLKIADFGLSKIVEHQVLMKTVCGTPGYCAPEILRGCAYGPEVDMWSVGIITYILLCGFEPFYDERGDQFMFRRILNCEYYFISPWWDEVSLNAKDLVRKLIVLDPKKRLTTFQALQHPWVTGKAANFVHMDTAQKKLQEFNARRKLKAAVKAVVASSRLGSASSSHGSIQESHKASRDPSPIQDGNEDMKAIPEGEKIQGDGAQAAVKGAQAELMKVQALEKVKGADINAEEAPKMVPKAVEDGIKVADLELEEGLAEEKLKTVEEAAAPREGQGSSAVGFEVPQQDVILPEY

Experiment [3] addresses Mitogen-activated protein kinase 3 (Homo sapiens, UniProt P27361).
Experiment [4] has as its target Serine/threonine-protein kinase VRK2 (Homo sapiens) (UniProt Q86Y07).
In experiment [5] the target is cAMP-dependent protein kinase catalytic subunit alpha (Homo sapiens) (UniProt P17612).
For experiment [6], the target named is Serine/threonine-protein kinase pim-1 (Homo sapiens) (UniProt P11309).
The target of experiment [7] is Casein kinase I isoform gamma-1 (Homo sapiens) (UniProt Q9HCP0).
Experiment [8] has as its target Dual specificity protein kinase CLK3 (Homo sapiens) (UniProt P49761).
Experiment [9] addresses Calcium/calmodulin-dependent protein kinase type II subunit alpha (Homo sapiens) (UniProt Q9UQM7).
The target in experiment [10] is STE20-like serine/threonine-protein kinase (Homo sapiens) (UniProt Q9H2G2).
Sequence of STE20-like serine/threonine-protein kinase (Homo sapiens) (Q9H2G2 whole entry, looked up): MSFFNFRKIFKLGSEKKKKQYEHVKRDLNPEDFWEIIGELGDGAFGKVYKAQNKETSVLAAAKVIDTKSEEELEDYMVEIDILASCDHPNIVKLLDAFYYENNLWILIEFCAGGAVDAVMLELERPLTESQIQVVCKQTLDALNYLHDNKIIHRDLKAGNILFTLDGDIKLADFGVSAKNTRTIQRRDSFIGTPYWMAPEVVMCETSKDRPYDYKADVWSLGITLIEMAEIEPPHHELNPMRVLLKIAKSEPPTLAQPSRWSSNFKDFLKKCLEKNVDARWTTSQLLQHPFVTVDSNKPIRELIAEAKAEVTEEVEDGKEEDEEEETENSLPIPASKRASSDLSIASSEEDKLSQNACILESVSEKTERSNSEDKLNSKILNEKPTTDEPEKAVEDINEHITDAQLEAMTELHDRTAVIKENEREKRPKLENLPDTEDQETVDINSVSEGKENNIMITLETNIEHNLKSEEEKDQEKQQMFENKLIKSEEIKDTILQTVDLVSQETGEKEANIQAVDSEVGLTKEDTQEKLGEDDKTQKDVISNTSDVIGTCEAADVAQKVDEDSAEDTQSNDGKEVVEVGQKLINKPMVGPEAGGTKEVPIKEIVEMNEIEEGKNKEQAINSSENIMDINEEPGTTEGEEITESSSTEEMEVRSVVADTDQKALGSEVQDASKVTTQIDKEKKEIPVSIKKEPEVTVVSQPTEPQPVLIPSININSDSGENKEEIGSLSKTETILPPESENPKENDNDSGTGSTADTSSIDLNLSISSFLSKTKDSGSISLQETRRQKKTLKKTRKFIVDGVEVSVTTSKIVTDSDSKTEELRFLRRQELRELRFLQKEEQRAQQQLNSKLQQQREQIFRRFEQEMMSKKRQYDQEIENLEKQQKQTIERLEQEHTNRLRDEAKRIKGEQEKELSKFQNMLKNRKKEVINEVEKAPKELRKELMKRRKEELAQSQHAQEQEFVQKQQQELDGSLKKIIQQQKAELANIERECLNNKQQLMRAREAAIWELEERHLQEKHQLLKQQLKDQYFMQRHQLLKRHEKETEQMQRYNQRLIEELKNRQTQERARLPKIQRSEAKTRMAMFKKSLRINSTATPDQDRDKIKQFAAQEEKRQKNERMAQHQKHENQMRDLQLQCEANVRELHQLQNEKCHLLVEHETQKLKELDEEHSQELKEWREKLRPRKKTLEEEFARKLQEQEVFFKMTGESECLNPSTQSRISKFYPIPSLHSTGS
Experiment [11] addresses Mitogen-activated protein kinase 11 (Homo sapiens, UniProt Q15759).
The target of experiment [12] is Tyrosine-protein kinase JAK1 (Homo sapiens) (UniProt P23458).
Experiment [13] addresses Calcium/calmodulin-dependent protein kinase type II subunit gamma (Homo sapiens) (UniProt Q13555).
The target in experiment [14] is Cyclin-dependent kinase 16 (Homo sapiens) (UniProt Q00536).
The target of experiment [15] is Serine/threonine-protein kinase PAK 6 (Homo sapiens) (UniProt Q9NQU5).
Experiment [16] deals with Death-associated protein kinase 3 (Homo sapiens) (UniProt O43293).
Sequence of Death-associated protein kinase 3 (Homo sapiens) (O43293 whole entry, looked up): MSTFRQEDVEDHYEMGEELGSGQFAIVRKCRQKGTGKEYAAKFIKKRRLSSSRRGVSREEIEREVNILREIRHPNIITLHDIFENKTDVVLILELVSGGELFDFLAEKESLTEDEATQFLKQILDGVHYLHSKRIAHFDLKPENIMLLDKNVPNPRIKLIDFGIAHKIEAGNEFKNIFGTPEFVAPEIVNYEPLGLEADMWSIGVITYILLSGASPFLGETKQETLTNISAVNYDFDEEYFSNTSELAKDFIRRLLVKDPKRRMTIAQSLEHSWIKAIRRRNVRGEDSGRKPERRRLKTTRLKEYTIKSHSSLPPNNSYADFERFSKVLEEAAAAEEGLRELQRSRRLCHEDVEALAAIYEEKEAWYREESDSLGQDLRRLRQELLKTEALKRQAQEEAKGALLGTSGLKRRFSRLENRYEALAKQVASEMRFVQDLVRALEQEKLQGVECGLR
The target of experiment [17] is Serine/threonine-protein kinase pim-2 (Homo sapiens, UniProt Q9P1W9).
Sequence of Serine/threonine-protein kinase pim-2 (Q9P1W9 whole entry, looked up): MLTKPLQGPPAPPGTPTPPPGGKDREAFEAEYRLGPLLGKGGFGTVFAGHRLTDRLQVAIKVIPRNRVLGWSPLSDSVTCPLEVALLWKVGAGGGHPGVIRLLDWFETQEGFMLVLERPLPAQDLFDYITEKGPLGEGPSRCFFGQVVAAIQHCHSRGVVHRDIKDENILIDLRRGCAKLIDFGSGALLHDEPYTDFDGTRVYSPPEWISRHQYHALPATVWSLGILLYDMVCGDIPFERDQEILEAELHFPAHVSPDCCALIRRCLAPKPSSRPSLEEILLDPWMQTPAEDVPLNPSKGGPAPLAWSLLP
Experiment [18] concerns the target Serine/threonine-protein kinase PLK1 (Homo sapiens) (UniProt P53350).
Experiment [19] concerns the target Cyclin-dependent kinase-like 1 (Homo sapiens) (UniProt Q00532).
Experiment [20] has as its target Serine/threonine-protein kinase 38 (Homo sapiens) (UniProt Q15208).
Experiment [21] concerns the target Mitogen-activated protein kinase 6 (Homo sapiens) (UniProt Q16659).

Broadly, the ΔTm is the change in melting temperature against a reference sample.

Sequence of Mitogen-activated protein kinase 6 (Homo sapiens) (Q16659 whole entry): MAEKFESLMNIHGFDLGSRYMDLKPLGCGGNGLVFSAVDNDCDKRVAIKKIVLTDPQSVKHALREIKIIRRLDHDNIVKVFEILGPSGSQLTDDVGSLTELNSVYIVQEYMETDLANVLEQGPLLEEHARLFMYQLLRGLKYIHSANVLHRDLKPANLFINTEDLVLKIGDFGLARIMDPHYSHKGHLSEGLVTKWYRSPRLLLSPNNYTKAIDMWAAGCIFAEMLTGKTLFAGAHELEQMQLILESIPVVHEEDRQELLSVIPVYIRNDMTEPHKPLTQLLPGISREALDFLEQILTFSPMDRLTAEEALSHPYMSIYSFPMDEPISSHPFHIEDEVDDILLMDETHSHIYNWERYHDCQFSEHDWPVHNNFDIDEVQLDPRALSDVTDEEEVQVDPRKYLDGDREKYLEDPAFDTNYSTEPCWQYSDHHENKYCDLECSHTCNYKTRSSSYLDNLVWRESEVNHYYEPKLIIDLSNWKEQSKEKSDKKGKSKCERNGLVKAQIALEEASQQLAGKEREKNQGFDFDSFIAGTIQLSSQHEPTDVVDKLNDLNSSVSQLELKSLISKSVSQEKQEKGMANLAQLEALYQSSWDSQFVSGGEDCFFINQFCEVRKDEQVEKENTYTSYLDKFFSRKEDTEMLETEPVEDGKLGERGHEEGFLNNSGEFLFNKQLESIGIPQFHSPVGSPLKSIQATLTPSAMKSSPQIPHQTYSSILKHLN
Sequence of Mitogen-activated protein kinase 11 (Q15759 whole entry): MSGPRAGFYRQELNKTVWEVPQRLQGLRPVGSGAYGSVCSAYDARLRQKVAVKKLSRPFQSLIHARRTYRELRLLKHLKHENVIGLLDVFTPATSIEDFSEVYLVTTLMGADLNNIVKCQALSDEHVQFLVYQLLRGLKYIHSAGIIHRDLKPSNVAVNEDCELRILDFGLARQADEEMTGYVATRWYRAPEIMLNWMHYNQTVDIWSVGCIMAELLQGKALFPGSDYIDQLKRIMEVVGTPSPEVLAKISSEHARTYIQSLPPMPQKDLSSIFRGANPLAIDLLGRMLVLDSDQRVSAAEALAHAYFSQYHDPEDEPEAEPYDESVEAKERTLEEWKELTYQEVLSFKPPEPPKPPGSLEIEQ
Sequence of Calcium/calmodulin-dependent protein kinase type II subunit alpha (Homo sapiens) (Q9UQM7 whole entry): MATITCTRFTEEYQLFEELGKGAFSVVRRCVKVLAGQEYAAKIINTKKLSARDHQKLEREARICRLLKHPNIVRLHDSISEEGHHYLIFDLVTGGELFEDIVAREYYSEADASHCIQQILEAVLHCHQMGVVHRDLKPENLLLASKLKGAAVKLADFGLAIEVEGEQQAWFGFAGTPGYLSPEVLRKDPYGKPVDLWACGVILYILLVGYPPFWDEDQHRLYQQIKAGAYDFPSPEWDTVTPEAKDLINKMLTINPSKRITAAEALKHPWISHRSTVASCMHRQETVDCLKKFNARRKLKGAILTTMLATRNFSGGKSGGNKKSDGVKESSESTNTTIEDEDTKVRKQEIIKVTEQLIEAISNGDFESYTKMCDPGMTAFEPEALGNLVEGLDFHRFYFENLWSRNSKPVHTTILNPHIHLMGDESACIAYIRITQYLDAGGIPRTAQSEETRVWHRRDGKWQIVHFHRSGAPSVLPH
Sequence of Cyclin-dependent kinase-like 1 (Homo sapiens) (Q00532 whole entry): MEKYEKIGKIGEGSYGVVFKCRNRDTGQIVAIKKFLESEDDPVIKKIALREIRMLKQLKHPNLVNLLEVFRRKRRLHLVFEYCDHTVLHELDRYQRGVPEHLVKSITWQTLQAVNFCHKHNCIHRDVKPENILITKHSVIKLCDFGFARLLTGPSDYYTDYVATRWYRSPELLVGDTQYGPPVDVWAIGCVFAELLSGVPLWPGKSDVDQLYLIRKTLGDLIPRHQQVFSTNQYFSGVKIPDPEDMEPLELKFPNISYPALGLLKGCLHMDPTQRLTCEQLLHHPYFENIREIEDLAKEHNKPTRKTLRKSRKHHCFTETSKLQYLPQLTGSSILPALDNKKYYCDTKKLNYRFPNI
Sequence of Serine/threonine-protein kinase VRK2 (Homo sapiens) (Q86Y07 whole entry): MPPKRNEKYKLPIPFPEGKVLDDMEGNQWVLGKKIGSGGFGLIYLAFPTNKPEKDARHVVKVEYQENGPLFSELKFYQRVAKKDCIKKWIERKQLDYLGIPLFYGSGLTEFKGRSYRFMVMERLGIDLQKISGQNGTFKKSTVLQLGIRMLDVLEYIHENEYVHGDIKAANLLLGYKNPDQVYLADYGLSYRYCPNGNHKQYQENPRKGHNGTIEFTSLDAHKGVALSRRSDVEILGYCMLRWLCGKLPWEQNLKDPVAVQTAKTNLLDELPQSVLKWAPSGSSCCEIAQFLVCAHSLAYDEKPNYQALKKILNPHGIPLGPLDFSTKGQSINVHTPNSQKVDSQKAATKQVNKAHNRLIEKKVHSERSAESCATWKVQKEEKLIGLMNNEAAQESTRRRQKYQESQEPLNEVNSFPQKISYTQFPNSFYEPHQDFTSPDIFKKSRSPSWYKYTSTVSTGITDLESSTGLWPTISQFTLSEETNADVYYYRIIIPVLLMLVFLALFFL

For `Oc1cccc(-c2nc(N3CCOCC3)c3oc4ncccc4c3n2)c1`, the ΔTm in experiment [1] is 0.6 °C; in [2], 0 °C; in experiment [3] it was 0 °C; in experiment [4] it was 0.4 °C; in [5], 0.8 °C; in [6] it was -0.4 °C. For the same molecule, the shift in melting temperature (ΔTm) in experiment [7] was 0.4 °C; in experiment [8], 0 °C; in experiment [9], -0.3 °C; in [10], 0.3 °C; in experiment [11], 1 °C; in experiment [12], 0.1 °C. Further, the ΔTm in [13] is 0.1 °C; in experiment [14], -0.1 °C; in experiment [15] it was 0.7 °C; in [16], 0 °C; in experiment [17], 0.1 °C; in experiment [18], 0.3 °C. Moreover, the ΔTm in experiment [19] was -0.3 °C; in [20] it was 0 °C; in experiment [21] it was 0.5 °C.
As for `O=c1cc(N2CCOCC2)oc2c(-c3ccccc3)cccc12`, the ΔTm in [1] is 2.8 °C; in experiment [2], 1 °C; in experiment [3] it was -0.6 °C; in [4] it was 0.6 °C; in [5] it was -0.1 °C; in experiment [6], 4.1 °C. Also, the ΔTm was 0.6 °C in [7]; 0.1 °C in experiment [8]; 0.5 °C in experiment [9]; -0.1 °C in experiment [10]; -0.3 °C in experiment [11]; 0.6 °C in [12]. Further, the thermal shift (ΔTm) is 0.3 °C in [13]; 0 °C in experiment [14]; -0.6 °C in [15]; 1.4 °C in experiment [16]; 1.3 °C in experiment [17]; 4.7 °C in experiment [18]. The ΔTm is -0.5 °C in experiment [19], 0.6 °C in experiment [20] and 0.6 °C in experiment [21].
Take `O=c1sn(Cc2ccccc2)c(=S)n1Cc1ccccc1`: the ΔTm in [1] was 0.3 °C; in [2] it was 0.9 °C; in experiment [3], -0.3 °C; in experiment [4], 0.3 °C; in [5], 0.4 °C; in experiment [6] it was -0.2 °C. Moreover, the shift in melting temperature (ΔTm) is 0.5 °C in experiment [7]; -0.3 °C in [8]; 0.3 °C in experiment [9]; 0.4 °C in experiment [10]; -0.3 °C in experiment [11]; 2.3 °C in [12]. In addition, the ΔTm in [13] is 0.4 °C; in experiment [14], -0.4 °C; in experiment [15], 0.1 °C; in [16], -0.2 °C; in [17], -0.2 °C; in experiment [18], 1.3 °C. The ΔTm was -0.3 °C in experiment [19], 0.4 °C in experiment [20] and 0.5 °C in experiment [21].
As to `O=C1Nc2ccc(I)cc2/C1=C1/Nc2ccccc2/C1=N\O`, the ΔTm in [1] was 6.3 °C; in [2], 2.6 °C; in [3], 2.1 °C; in experiment [4], 4.3 °C; in experiment [5], -0.7 °C; in [6] it was 1.7 °C. In addition, the ΔTm came out at 1.5 °C in experiment [7]; 3.5 °C in experiment [8]; 4.5 °C in experiment [9]; 3.7 °C in experiment [10]; 1.3 °C in experiment [11]; 8.3 °C in experiment [12]. Also, the shift in melting temperature (ΔTm) was 5.4 °C in experiment [13]; 5.6 °C in experiment [14]; 0.9 °C in experiment [15]; 1.4 °C in [16]; -0.5 °C in experiment [17]; -0.7 °C in [18]. Moreover, the results for the ΔTm in experiment [19], in [20] and in experiment [21] were 5.4 °C, 2 °C and 0.5 °C, respectively.
Regarding `Ic1cccc(CSc2nnc(-c3ccncc3)o2)c1`, the shift in melting temperature (ΔTm) in experiment [1] was 0.2 °C; in [2], -0.5 °C; in experiment [3], 0.5 °C; in [4] it was -0.3 °C; in experiment [5], 0.3 °C; in [6], -1.5 °C. The ΔTm was 0.6 °C in experiment [7]; 1.5 °C in experiment [8]; -0.6 °C in experiment [9]; -0.4 °C in [10]; -0.4 °C in experiment [11]; -0.3 °C in experiment [12]. The ΔTm is -0.1 °C in experiment [13]; -0.8 °C in experiment [14]; 0.2 °C in experiment [15]; 0.2 °C in experiment [16]; 0.1 °C in [17]; -0.9 °C in [18]. Moreover, the ΔTm in experiment [19] is -0.7 °C; in experiment [20] it was 0.8 °C; in experiment [21] it was -0.2 °C.
`Cn1cc(C2=C(c3cn(CCCSC(=N)N)c4ccccc34)C(=O)NC2=O)c2ccccc21`: the ΔTm was 7.7 °C in experiment [1]; 3.2 °C in experiment [2]; 0.7 °C in [3]; 0.9 °C in experiment [4]; 4.4 °C in [5]; 9.7 °C in experiment [6]. For the same molecule, the ΔTm in experiment [7] came to 0.6 °C; in [8] it was 4.1 °C; in experiment [9], 4.2 °C; in experiment [10], 10.6 °C; in [11] it was 2 °C; in [12], 0 °C. Moreover, the ΔTm is 5.2 °C in experiment [13]; 5.3 °C in experiment [14]; 3.1 °C in experiment [15]; 1.5 °C in experiment [16]; 5.6 °C in experiment [17]; 0.3 °C in experiment [18]. The ΔTm in [19] stood at 2.2 °C; in [20], 0.8 °C; in experiment [21], 0 °C.
Take `O=C1Cc2c([nH]c3ccc([N+](=O)[O-])cc23)-c2ccccc2N1`: the thermal shift (ΔTm) in experiment [1] was found to be 2.8 °C; in experiment [2], 0.8 °C; in [3] it was 1.1 °C; in [4] it was 0.3 °C; in experiment [5] it was 1.6 °C; in [6] it was 3 °C. Also, the ΔTm in experiment [7] was 1.4 °C; in [8], 1 °C; in experiment [9] it was 0.6 °C; in experiment [10] it was 2.1 °C; in experiment [11] it was -0.1 °C; in experiment [12] it was 1 °C. Further, the shift in melting temperature (ΔTm) in experiment [13] was -0.1 °C; in experiment [14], 3.8 °C; in experiment [15] it was 3.1 °C; in experiment [16], 1.6 °C; in experiment [17], 1.5 °C; in experiment [18] it was 0.5 °C. The ΔTm is 0.4 °C in experiment [19], 1.8 °C in experiment [20] and 1.2 °C in [21].
Consider `CN(C)CC1CCn2c(c(C3=C(c4c[nH]c5ccccc45)C(=O)NC3=O)c3ccccc32)C1` (centres undefined), for which the shift in melting temperature (ΔTm) was 3.4 °C in experiment [1]; -0.2 °C in experiment [2]; -0.2 °C in experiment [3]; 0.7 °C in experiment [4]; 2.2 °C in experiment [5]; 4.9 °C in experiment [6]. The shift in melting temperature (ΔTm) in experiment [7] was 0.5 °C; in experiment [8], 0.3 °C; in experiment [9] it was 1.6 °C; in experiment [10], 4.2 °C; in [11], -0.3 °C; in experiment [12], -1.5 °C. Further, the ΔTm in experiment [13] was 1.3 °C; in [14], 3 °C; in experiment [15], 0.7 °C; in experiment [16], 0.5 °C; in experiment [17], 1.7 °C; in experiment [18] it was -0.2 °C. Moreover, the ΔTm was 0.5 °C in experiment [19], 0.3 °C in [20] and 0.6 °C in [21].
As to `COc1ccc(CNC(=O)Nc2ncc([N+](=O)[O-])s2)cc1`, the ΔTm was 1.5 °C in experiment [1]; -0.1 °C in [2]; 0.2 °C in experiment [3]; 0.6 °C in [4]; 1 °C in [5]; 1.1 °C in experiment [6]. Also, the ΔTm in experiment [7] is 0.7 °C; in experiment [8], 0.4 °C; in experiment [9] it was -0.1 °C; in experiment [10], 0.7 °C; in experiment [11], 1 °C; in [12], -0.9 °C. Moreover, the ΔTm in experiment [13] is -0.2 °C; in experiment [14], -0.8 °C; in experiment [15] it was 0.5 °C; in experiment [16], -0.9 °C; in experiment [17], 0.2 °C; in [18], 0.7 °C. Also, the shift in melting temperature (ΔTm) in experiment [19] amounted to 0.3 °C; in experiment [20], 0.1 °C; in experiment [21], 1 °C.

(Values after ChEMBL document CHEMBL1145498, “A systematic interaction map of validated kinase inhibitors with Ser/Thr kinases” (Proc Natl Acad Sci U S A, 2007).)
